Test results as given in publication PMC5218480 (PLoS ONE, 2017).

Test system: MV-4-11 cells
Experiment: Gene expression microarray analysis (Affymetrix PrimeView) and GSEA
Assay type: cell-based, human
Parameters: RFU PODN (11730768_x_at) / Fold change /veh PODN (11730768_x_at) / RFU LINC00158 (11744669_a_at) / Fold change /veh LINC00158 (11744669_a_at) / RFU DUSP10 (11751237_a_at) / Fold change /veh DUSP10 (11751237_a_at) / RFU ID3 (11757404_x_at) / Fold change /veh ID3 (11757404_x_at) / RFU PLEKHG5 (11737974_s_at) / Fold change /veh PLEKHG5 (11737974_s_at) / RFU LRRC4B (11730491_at) / Fold change /veh LRRC4B (11730491_at) / RFU GIMAP4 (11747438_a_at) / Fold change /veh GIMAP4 (11747438_a_at) / RFU KRT8 (11758183_x_at) / Fold change /veh KRT8 (11758183_x_at) / RFU CNN1 (11734310_a_at) / Fold change /veh CNN1 (11734310_a_at) / RFU VPS37D (11726825_at) / Fold change /veh VPS37D (11726825_at) / RFU C10orf10 (11716522_x_at) / Fold change /veh C10orf10 (11716522_x_at) / RFU KIR2DL2 /// KIR2DL4 /// KIR2DL5A /// KIR2DL5B /// KIR2DS1 /// KIR2DS2 /// KIR2DS3 /// KIR2DS4 /// KIR3DL3 /// KIR3DL3 /// KIR3DS1 (11738374_at) / Fold change /veh KIR2DL2 /// KIR2DL4 /// KIR2DL5A /// KIR2DL5B /// KIR2DS1 /// KIR2DS2 /// KIR2DS3 /// KIR2DS4 /// KIR3DL3 /// KIR3DL3 /// KIR3DS1 (11738374_at) / RFU C1QL1 (11718748_at) / Fold change /veh C1QL1 (11718748_at) / RFU TMPRSS4 (11747572_a_at) / Fold change /veh TMPRSS4 (11747572_a_at) / RFU HAMP (11756126_x_at) / Fold change /veh HAMP (11756126_x_at) / RFU RNFT2 (11725882_a_at) / Fold change /veh RNFT2 (11725882_a_at) / RFU NR4A2 (11747474_a_at) / Fold change /veh NR4A2 (11747474_a_at) / RFU ABCC12 (11746883_a_at) / Fold change /veh ABCC12 (11746883_a_at) / RFU TMEM136 (11760407_x_at) / Fold change /veh TMEM136 (11760407_x_at) / RFU CLDN22 /// WWC2 (11732394_at) / Fold change /veh CLDN22 /// WWC2 (11732394_at) / RFU HLA-DPB1 (11760878_x_at) / Fold change /veh HLA-DPB1 (11760878_x_at) / RFU SPINT1 (11716480_a_at) / Fold change /veh SPINT1 (11716480_a_at) / RFU GAP43 (11754022_s_at) / Fold change /veh GAP43 (11754022_s_at) / RFU A4GNT (11735810_at) / Fold change /veh A4GNT (11735810_at) / RFU PRB3 (11715151_x_at) / Fold change /veh PRB3 (11715151_x_at) / RFU TUBB4B (11761932_at) / Fold change /veh TUBB4B (11761932_at) / RFU CAPN14 (11732068_a_at) / Fold change /veh CAPN14 (11732068_a_at) / RFU TMCC2 (11721928_a_at) / Fold change /veh TMCC2 (11721928_a_at) / RFU IRGQ (11745062_a_at) / Fold change /veh IRGQ (11745062_a_at) / RFU FAM174B (11720279_a_at) / Fold change /veh FAM174B (11720279_a_at) / RFU TMPRSS4 (11748680_a_at) / Fold change /veh TMPRSS4 (11748680_a_at) / RFU FAM212B (11763350_a_at) / Fold change /veh FAM212B (11763350_a_at) / RFU PLEKHG5 (11743358_a_at) / Fold change /veh PLEKHG5 (11743358_a_at) / RFU ZSCAN30 (11745921_a_at) / Fold change /veh ZSCAN30 (11745921_a_at) / RFU CMKLR1 (11741424_a_at) / Fold change /veh CMKLR1 (11741424_a_at) / RFU LOC101060620 /// MAPK8IP1 (11723275_at) / Fold change /veh LOC101060620 /// MAPK8IP1 (11723275_at) / RFU SPTSSB (11747773_x_at) / Fold change /veh SPTSSB (11747773_x_at) / RFU PRSS12 (11739890_at) / Fold change /veh PRSS12 (11739890_at) / RFU BIN1 (11741810_x_at) / Fold change /veh BIN1 (11741810_x_at) / RFU WNT11 (11732464_a_at) / Fold change /veh WNT11 (11732464_a_at) / RFU C10orf10 (11716521_a_at) / Fold change /veh C10orf10 (11716521_a_at) / RFU C5orf56 (11738089_at) / Fold change /veh C5orf56 (11738089_at) / RFU CYB561 (11721691_x_at) / Fold change /veh CYB561 (11721691_x_at) / RFU ANKRD19P (11752326_a_at) / Fold change /veh ANKRD19P (11752326_a_at) / RFU OR2T12 /// OR2T33 /// OR2T8 (11738714_s_at) / Fold change /veh OR2T12 /// OR2T33 /// OR2T8 (11738714_s_at) / RFU VCAN (11748164_a_at) / Fold change /veh VCAN (11748164_a_at) / RFU JSRP1 (11732532_at) / Fold change /veh JSRP1 (11732532_at) / RFU KRTAP10-11 (11738290_x_at) / Fold change /veh KRTAP10-11 (11738290_x_at) / RFU MYO3A (11730013_a_at) / Fold change /veh MYO3A (11730013_a_at) / RFU EBF3 (11725865_a_at) / Fold change /veh EBF3 (11725865_a_at) / RFU CAMK2N1 (11719241_x_at) / Fold change /veh CAMK2N1 (11719241_x_at) / RFU C5orf56 (11738088_a_at) / Fold change /veh C5orf56 (11738088_a_at) / RFU OLFML3 (11715873_a_at) / Fold change /veh OLFML3 (11715873_a_at) / RFU LOC100653217 /// NTM (11731650_a_at) / Fold change /veh LOC100653217 /// NTM (11731650_a_at) / RFU MAPK11 (11762145_a_at) / Fold change /veh MAPK11 (11762145_a_at) / RFU FIZ1 (11724087_x_at) / Fold change /veh FIZ1 (11724087_x_at) / RFU OASL (11726364_x_at) / Fold change /veh OASL (11726364_x_at) / RFU SOX15 (11748057_x_at) / Fold change /veh SOX15 (11748057_x_at) / RFU CD79A (11719716_a_at) / Fold change /veh CD79A (11719716_a_at) / RFU HIST1H1D (11736915_at) / Fold change /veh HIST1H1D (11736915_at) / RFU CASKIN2 (11723855_a_at) / Fold change /veh CASKIN2 (11723855_a_at) / RFU LOC730098 (11760151_x_at) / Fold change /veh LOC730098 (11760151_x_at) / RFU OR4N2 (11742367_at) / Fold change /veh OR4N2 (11742367_at) / RFU PRRT2 (11749266_a_at) / Fold change /veh PRRT2 (11749266_a_at) / RFU SNX32 (11753110_a_at) / Fold change /veh SNX32 (11753110_a_at) / RFU CDHR5 (11726645_a_at) / Fold change /veh CDHR5 (11726645_a_at) / RFU RCAN1 (11760418_a_at) / Fold change /veh RCAN1 (11760418_a_at) / RFU FAM167A (11723789_a_at) / Fold change /veh FAM167A (11723789_a_at) / RFU FAM26E (11764081_at) / Fold change /veh FAM26E (11764081_at) / RFU ISYNA1 (11749810_s_at) / Fold change /veh ISYNA1 (11749810_s_at) / RFU ACY1 (11761880_at) / Fold change /veh ACY1 (11761880_at) / RFU 11764098_at / Fold change /veh 11764098_at / RFU SAMD14 (11745864_x_at) / Fold change /veh SAMD14 (11745864_x_at) / RFU NPB (11741838_a_at) / Fold change /veh NPB (11741838_a_at) / RFU TMPRSS6 (11731388_a_at) / Fold change /veh TMPRSS6 (11731388_a_at) / RFU KRTAP10-2 (11738614_at) / Fold change /veh KRTAP10-2 (11738614_at) / RFU ARHGAP8 /// PRR5-ARHGAP8 (11727945_x_at) / Fold change /veh ARHGAP8 /// PRR5-ARHGAP8 (11727945_x_at) / RFU KRTAP5-7 /// NADSYN1 (11734609_at) / Fold change /veh KRTAP5-7 /// NADSYN1 (11734609_at) / RFU RASL12 (11751679_a_at) / Fold change /veh RASL12 (11751679_a_at) / RFU CDKN2B (11736163_a_at) / Fold change /veh CDKN2B (11736163_a_at) / RFU PRF1 (11729649_at) / Fold change /veh PRF1 (11729649_at) / RFU, ZNF638 /// ZNF638-IT1 / Fold change vs veh, ZNF638 /// ZNF638-IT1 / RFU, PANK3 / Fold change vs veh, PANK3 / RFU, SH3YL1 / Fold change vs veh, SH3YL1 / RFU, ZEB2 / Fold change vs veh, ZEB2 / RFU, NRIP1 / Fold change vs veh, NRIP1 / RFU, PTTG1IP / Fold change vs veh, PTTG1IP / RFU, CAPN2 / Fold change vs veh, CAPN2 / RFU, MED14 / Fold change vs veh, MED14 / RFU, SNORA58 / Fold change vs veh, SNORA58 / RFU, C1orf63 / Fold change vs veh, C1orf63 / RFU, LRRFIP1 / Fold change vs veh, LRRFIP1 / RFU, NDUFAF7 / Fold change vs veh, NDUFAF7 / RFU, SLC12A2 / Fold change vs veh, SLC12A2 / RFU, IBTK / Fold change vs veh, IBTK / RFU, ESF1 / Fold change vs veh, ESF1 / Fold change vs veh, TMEM50B / RFU, TAOK1 / Fold change vs veh, TAOK1 / RFU, ACBD3 / Fold change vs veh, ACBD3 / RFU, TMA16 / Fold change vs veh, TMA16 / RFU, RWDD3 / Fold change vs veh, RWDD3 / RFU, BCAT1 / Fold change vs veh, BCAT1 / RFU, EDEM3 / Fold change vs veh, EDEM3 / RFU, TMEM33 / Fold change vs veh, TMEM33 / RFU, WDR75 / Fold change vs veh, WDR75 / RFU, AHCTF1 / Fold change vs veh, AHCTF1 / RFU, TFRC / Fold change vs veh, TFRC / RFU, ZDHHC17 / Fold change vs veh, ZDHHC17 / RFU, NOM1 / Fold change vs veh, NOM1 / RFU, ARL8B / Fold change vs veh, ARL8B / RFU, ZBTB11 / Fold change vs veh, ZBTB11 / RFU, TAMM41 / Fold change vs veh, TAMM41 / RFU, KIAA1704 /// LOC100996395 / Fold change vs veh, KIAA1704 /// LOC100996395 / RFU, ING1 / Fold change vs veh, ING1 / RFU, TRMT61B / Fold change vs veh, TRMT61B / RFU, FUBP3 / Fold change vs veh, FUBP3 / RFU, TP53 / Fold change vs veh, TP53 / RFU, TNKS2 / Fold change vs veh, TNKS2 / RFU, ZFP14 / Fold change vs veh, ZFP14 / RFU, ACTR2 / Fold change vs veh, ACTR2 / RFU, PPP3R1 / Fold change vs veh, PPP3R1 / RFU, PIK3R1 / Fold change vs veh, PIK3R1 / RFU, HNRNPA1 / Fold change vs veh, HNRNPA1 / RFU, RNF170 / Fold change vs veh, RNF170 / RFU, ZNF28 / Fold change vs veh, ZNF28 / RFU, RNGTT / Fold change vs veh, RNGTT / RFU, OGT / Fold change vs veh, OGT / RFU, BRD1 / Fold change vs veh, BRD1 / RFU, MARS / Fold change vs veh, MARS / RFU, ZNF655 / Fold change vs veh, ZNF655 / RFU, FAHD1 / Fold change vs veh, FAHD1 / RFU, BDP1 / Fold change vs veh, BDP1 / RFU, LRRCC1 / Fold change vs veh, LRRCC1 / RFU, ARID1A / Fold change vs veh, ARID1A / RFU, ZNF146 / Fold change vs veh, ZNF146 / RFU, ZNF330 / Fold change vs veh, ZNF330 / RFU, GPN3 / Fold change vs veh, GPN3 / RFU, C9orf123 / Fold change vs veh, C9orf123 / RFU, N4BP2L2 / Fold change vs veh, N4BP2L2 / RFU, ARFIP1 / Fold change vs veh, ARFIP1 / RFU, FAM179B / Fold change vs veh, FAM179B / RFU, BCL10 / Fold change vs veh, BCL10 / RFU, UHRF1BP1L / Fold change vs veh, UHRF1BP1L / RFU, BET1 / Fold change vs veh, BET1 / RFU, CNOT2 / Fold change vs veh, CNOT2 / RFU, ZNF268 / Fold change vs veh, ZNF268 / Fold change vs veh, ZNF507 / RFU, DGCR2 / Fold change vs veh, DGCR2 / RFU, WDSUB1 / Fold change vs veh, WDSUB1 / Fold change vs veh, HSP90B1 /// MIR3652 / RFU, ADSS / Fold change vs veh, ADSS / RFU, GK / Fold change vs veh, GK / RFU, ZNF148 / Fold change vs veh, ZNF148 / RFU, TAF9 / Fold change vs veh, TAF9 / RFU, SLC1A5 / Fold change vs veh, SLC1A5 / RFU, SLMO2 / Fold change vs veh, SLMO2 / RFU, ABCC4 / Fold change vs veh, ABCC4 / RFU, LOC101060439 /// RAP1B / Fold change vs veh, LOC101060439 /// RAP1B / RFU, RFX7 / Fold change vs veh, RFX7 / RFU, GTPBP10 / Fold change vs veh, GTPBP10 / RFU, CNEP1R1 / Fold change vs veh, CNEP1R1 / RFU, BIVM-ERCC5 /// ERCC5 / Fold change vs veh, BIVM-ERCC5 /// ERCC5 / RFU, ILF3 / Fold change vs veh, ILF3 / RFU 11762660_at / Fold change /veh 11762660_at / RFU VCAN (11757783_s_at) / Fold change /veh VCAN (11757783_s_at) / RFU DDX43 (11728927_at) / Fold change /veh DDX43 (11728927_at) / RFU KRT8 (11758188_x_at) / Fold change /veh KRT8 (11758188_x_at) / RFU NKD1 (11759106_at) / Fold change /veh NKD1 (11759106_at) / RFU SRD5A1 (11742802_a_at) / Fold change /veh SRD5A1 (11742802_a_at) / RFU TPSAB1 /// TPSB2 (11721975_s_at) / Fold change /veh TPSAB1 /// TPSB2 (11721975_s_at) / RFU GSTM3 (11746129_a_at) / Fold change /veh GSTM3 (11746129_a_at) / RFU IL23R (11737362_x_at) / Fold change /veh IL23R (11737362_x_at) / RFU TMEM51 (11727254_a_at) / Fold change /veh TMEM51 (11727254_a_at) / RFU PIWIL2 (11732686_x_at) / Fold change /veh PIWIL2 (11732686_x_at) / RFU ORM1 (11744905_x_at) / Fold change /veh ORM1 (11744905_x_at) / RFU CCDC152 (11743942_at) / Fold change /veh CCDC152 (11743942_at) / RFU ECM1 (11717891_a_at) / Fold change /veh ECM1 (11717891_a_at) / RFU IL23R (11748794_a_at) / Fold change /veh IL23R (11748794_a_at) / RFU TNFAIP8L3 (11732012_x_at) / Fold change /veh TNFAIP8L3 (11732012_x_at) / RFU MBOAT4 (11741988_at) / Fold change /veh MBOAT4 (11741988_at) / RFU 11764193_at / Fold change /veh 11764193_at / RFU TMEM53 (11763286_at) / Fold change /veh TMEM53 (11763286_at) / RFU MAGEB2 (11727129_at) / Fold change /veh MAGEB2 (11727129_at) / RFU TMEM200A (11744735_a_at) / Fold change /veh TMEM200A (11744735_a_at) / RFU CCDC152 (11751479_a_at) / Fold change /veh CCDC152 (11751479_a_at) / RFU FAM211A (11726209_a_at) / Fold change /veh FAM211A (11726209_a_at) / RFU RGS16 (11746705_a_at) / Fold change /veh RGS16 (11746705_a_at) / RFU VCAN (11755009_s_at) / Fold change /veh VCAN (11755009_s_at) / RFU RHOB (11743442_s_at) / Fold change /veh RHOB (11743442_s_at) / RFU RGS16 (11720943_a_at) / Fold change /veh RGS16 (11720943_a_at) / RFU RGS16 (11720944_at) / Fold change /veh RGS16 (11720944_at) / RFU, VPS4B / Fold change vs veh, VPS4B / RFU, CREB1 / Fold change vs veh, CREB1 / RFU, DNAJC13 / Fold change vs veh, DNAJC13 / RFU, GNAQ / Fold change vs veh, GNAQ / RFU, CDK5R1 / Fold change vs veh, CDK5R1 / RFU, ZRANB3 / Fold change vs veh, ZRANB3 / RFU, CUL4A / Fold change vs veh, CUL4A / RFU, CCNY / Fold change vs veh, CCNY / RFU, UFL1 / Fold change vs veh, UFL1 / RFU, COG3 / Fold change vs veh, COG3 / RFU, DIAPH2 / Fold change vs veh, DIAPH2 / RFU, SKA2 / Fold change vs veh, SKA2 / RFU, AFF3 / Fold change vs veh, AFF3 / RFU, LMF1 / Fold change vs veh, LMF1 / RFU, IPO11 / Fold change vs veh, IPO11 / RFU, DFFB / Fold change vs veh, DFFB / RFU, FOXP1 / Fold change vs veh, FOXP1 / RFU, CARD8 / Fold change vs veh, CARD8 / RFU, STRN3 / Fold change vs veh, STRN3 / RFU, ADK / Fold change vs veh, ADK / RFU, RASSF2 / Fold change vs veh, RASSF2 / RFU, WIPF1 / Fold change vs veh, WIPF1 / RFU, LARP1B / Fold change vs veh, LARP1B / RFU, RASA1 / Fold change vs veh, RASA1 / RFU, RB1 / Fold change vs veh, RB1 / RFU, PPFIA1 / Fold change vs veh, PPFIA1 / RFU, MAT2A / Fold change vs veh, MAT2A / RFU, CCT5 / Fold change vs veh, CCT5 / RFU, WDR92 / Fold change vs veh, WDR92 / RFU, CUX1 / Fold change vs veh, CUX1 / RFU, TTC7A / Fold change vs veh, TTC7A / RFU, TMEM135 / Fold change vs veh, TMEM135 / RFU, DEPTOR / Fold change vs veh, DEPTOR / RFU, CPM / Fold change vs veh, CPM / RFU, DNAJB6 / Fold change vs veh, DNAJB6 / RFU, CACNA2D3 / Fold change vs veh, CACNA2D3 / RFU, DTX4 / Fold change vs veh, DTX4 / RFU, TFCP2 / Fold change vs veh, TFCP2 / RFU, GMCL1 /// GMCL1P1 / Fold change vs veh, GMCL1 /// GMCL1P1 / RFU, AEBP2 / Fold change vs veh, AEBP2 / RFU, SNHG1 /// SNORD22 /// SNORD25 /// SNORD26 /// SNORD27 /// SNORD28 /// SNORD29 /// SNORD31 / Fold change vs veh, SNHG1 /// SNORD22 /// SNORD25 /// SNORD26 /// SNORD27 /// SNORD28 /// SNORD29 /// SNORD31 / Fold change (Aza/veh), C12orf56 (ProbeSet 11735607_a_at) / Fold change (ACY-1035/veh), C12orf56 (ProbeSet 11735607_a_at) / Fold change (Aza/veh), FGFR1OP (ProbeSet 11751329_s_at) / Fold change (ACY-1035/veh), FGFR1OP (ProbeSet 11751329_s_at) / Fold change (Aza/veh), VPS36 (ProbeSet 11739960_a_at) / Fold change (ACY-1035/veh), VPS36 (ProbeSet 11739960_a_at) / RFU SYPL1 (11715823_x_at) / Fold change /veh SYPL1 (11715823_x_at) / RFU IGFBP7 (11715501_s_at) / Fold change /veh IGFBP7 (11715501_s_at) / RFU REEP3 (11722064_at) / Fold change /veh REEP3 (11722064_at) / RFU IGLL1 (11728026_x_at) / Fold change /veh IGLL1 (11728026_x_at): dose or concentration left out as unconfirmed
Conditions: ProbeSet 11741123_x_at; LIST D

With `Nc1ncn([C@@H]2O[C@H](CO)[C@@H](O)[C@H]2O)c(=O)n1` [azacitidine] the “Fold change vs veh, ADK” value was 0.72.
